Measurements taken from article PMC7226357, “Aspirin: A Suicide Inhibitor of Carbonic Anhydrase II” (Biomolecules, 2020).

Molecular target: T1, Carbonic anhydrase II (Homo sapiens, UniProt P00918)
T1 construct: gene CA2
Test: colorimetric esterase assay at […] nm (substrate of the assay)
Format: biochemical

SMILES: CC(=O)Oc1ccc([N+](=O)[O-])cc1 [pNPA, 4-nitrophenyl acetate]
- colorimetric esterase assay at 348 nm (substrate of the assay): CAII cleaves the ester bond of 4-nitrophenyl acetate, generating 4-nitrophenol.
